Source: patent publication US8299237B2, “Nucleic acid sequences comprising NF-κB binding site within O(6)-methylguanine-DNA-methyltransferase (MGMT) promoter region and uses thereof for the treatment of cancer and immune-related disorders” (Hadasit Medical Research Services & Development Ltd., priority 2007, dated 2012)

How the values were obtained:
Format in all cases: cell-based, human
[1] = system: MGMT-kB1-Luc reporter construct induced by NF-κB/p65; assay: Luciferase reporter assay, MGMT-kB1-Luc co-transfected with NF-κB/p65; settings: for effect on luciferase activity driven by MGMT-kB1 reporter (in words): HEK293T co-transfected with MGMT-kB1 reporter and NF-κB/p65
Experimental: (§1) Transient transfections were performed in 6-well plates, using the FuGene6 transfection reagent (Roche Diagnostics GmbH, Mannheim, Germany), according to the manufacturer's instructions. U87MG, T98G, and A172 cells were transfected with pNF-κB-Luc reporter Vector (Clontech, Palo Alto, Calif.), while RG2 and U87MG were transfected with MGMT-Luc [construct p-954/+24 mL [Biswas T. et al. Oncogene 18:525-32 (1999)] kindly provided by Sankar Mitra] (1 μg/well). CMVβ-galactosidase expression vector (CMVβgal-Clonthech) was included (0.1 μg/well) in each transfection to normalize transfection efficiency. HEK293 cells were transfected with CMVβgal alone or along with one or more of the following plasmids: CMVp65, CMVΔNIκB, CMVp50, CMVcJun. CMVp65 and CMVΔNIκB plasmids were kindly provided by Prof. Yinon. Ben-Neriah (The Hebrew University, Jerusalem, Israel), CMVp50 and CMVcJun were kindly provided by Dr. Danielle Melloul (Hadassah Hebrew University Medical Center, Jerusalem, Israel).
At 24 hrs following transfection, the cells were lysed for 15 min on ice with 200 μl of luciferase lysis buffer (Promega, Madison, Wis.). Luciferase assays were carried out using a Promega assay kit and a luminometer (EG&G Berthold, Bad Wildbad, Germany). The activity was normalized to β-galactosidase activity (Promega) and plotted as the mean±s.d. of triplicates from a representative experiment.
For the cloning of the MGMT-luc constructs the reporter vector p-TA-Luc (Clontech, Palo Alto, USA) was used. The plasmid contains TATA box motif upstream to a luciferase reporter gene. A double stranded DNA corresponding to four repeats of each sequence as indicated by FIG. 8A (also denoted by SEQ ID NO. 44, 45, 46 and 47), was synthesis by syntezza LTD and ligated upstream to the TATA box.
To test the activity of these sites, several luciferase reporter genes bearing four copies of either intact or mutant sequence, of each of the two NF-κB sites (NF-κB1 and NF-κB2), were constructed as indicated in Experimental procedures. […] An inhibition of approximately 50% was observed using 100 nM ODN. Negative control using the CMVΔNIκB (ΔN)-Luc construct as well as positive control using the canonical HIV-κB-Luc reporter construct, confirmed validity of the data.
Induction of over expression of NF-κB in HEK 293T cells by transfection of a CMV-NF-κB/p65 generated a 50-fold elevation in luciferase expression driven by the Co-transfected reporter construct MGMT-kB1-Luc. […] Inhibition of approximately 90% was induced by 150 nM LMODN. […] No inhibition was detected when a mutant LMODN was introduced into the cells, indicating the specificity of MGMT-kB1-LMODN (of SEQ ID NO. 40 and 41). […] 3 (HIV-κB-Luc construct).

T98MG gliomas cell line [2] = system: T98MG gliomas cell line
Experimental: (§2) T98MG glioma cell line cells were treated with increasing doses of the decoy ODN's of the invention. Double stranded ODNs (30mers), corresponding to MGMT-κB1 binding site (as also denoted by SEQ. ID. NO. 1), and control ODNs were purchased from IDT. Each strand of ODN was thirty-mers and contained six LNA nucleotides. The following ODNs were used: MGMT-kB1forward: 5′---+T+AATGGGG+ACTTTAC GGG+[…]+A+T---3′ (as also denoted by SEQ. ID. NO. 40) with or without the 5′ end labeled with carboxyfluorescein-5-succimidyl ester (FAM). The MGMT-kB1 reverse ODN: 5′---+A+TTCTGTA+[…]+[…]+T+A---3′ as also denoted by SEQ ID NO. 41). Control forward: 5′---+T+AG TGT CG+A CTT CAC TCT+ACT TGA CAG A+A+T---3′ (as also denoted by SEQ ID NO. 42), control reverse: 5′---+A+TT CTG TC+A AGT AGA GTG+AAG TCG ACA C+T+A---3′ as also denoted by SEQ ID NO. 43). It should be noted that (+designated as nucleotide containing an LNA modification).
(§3) The viability of the cells was tested 24-48 hrs later by CellTiter-Blue assay (Promega®). The assay was carried out according to the supplier's instructions. Briefly, the assay is based on the ability of living cells to convert a redox dye (resazurin) into a fluorescent end product (resorufin). Cell viability estimation is done by measuring the fluorescent intensity of resorufin (ex. 560 nm, em. 590 nm) using a fluorescent microplate reader.
The inventors next tested the potential of the decoy LMODN molecules of the invention to sensitize tumor cells to alkylating agents and thereby improve their efficacy as anti-cancerous treatment. Therefore, several human cancer cell lines were treated with alkylating agents with increasing doses of MGMT-kB1-ODN followed by cell viability tests. First, the sensitivity of each cell line to several alkylating agents, mainly temozolomide (TMZ) and BCNU was calibrated. At 24 hrs following sowing, cells were exposed for two hours to increasing concentrations of the alkylating agent and viability of the cells was tested 24-48 hrs later by CellTiter-Blue assay (Promega®). To test the potential of MGMT-kB1-LMODN to sensitize tumor cells to alkylating agents in-vitro, increasing doses of LMODNs MGMT-kB1 forward and reverse as denoted by SEQ ID NO. 40 and 41, respectively), with or without the 5′ end labeled with carboxyfluorescein-5-succimidyl ester (FAM), as well as the control LMODNs (as denoted by SEQ ID NO. 42 and 43), were liposomally introduced (Lipofectamine 2000, Invitrogen) to various tumor cancer cells. Twenty four hours later, cells were treated with the different doses of alkylating agents as calibrated before.
FIG. 9 represents an example of T98MG gliomas cell line sensitized to alkylating agents in response to treatment with the LMODN's of the invention. […]

[3] = system: canonical NF-κB binding site from HIV (HIV-κB-Luc construct); assay: Luciferase reporter assay, HIV-κB-Luc construct induced by p65; settings: 150 nm LMODN
Experimental: as §1, with “Israel). […]” for “Israel).”
Induction of over expression of NF-κB in HEK 293T cells by transfection of a CMV-NF-κB/p65 generated a 50-fold elevation in luciferase expression driven by the Co-transfected reporter construct MGMT-kB1-Luc. […] No inhibition was detected when a mutant LMODN was introduced into the cells, indicating the specificity of MGMT-kB1-LMODN (of SEQ ID NO. 40 and 41). […]

T98MG gliomas cell line [4] = settings: corresponding concentrations, 48 hours
Experimental: as §2
as §3, with “reader. […]” for “reader.”

Substance | inhibition of luciferase activity ([1]; 150 nM LMODN, liposomal, HEK 293T, MGMT-kB1-Luc + NFκB/p65 (FIG. 8)) | effect on luciferase activity driven by MGMT-kB1 reporter (in words) [1] | inhibitory activity relative to NF-κB super repressor ΔNI-κB ([1]; LMODN at 150 nM) | toxicity to cells, viability of cells treated only with the LMODN (T98MG gliomas cell line [2]) | live cells (T98MG gliomas cell line [2]; 2.5 mM TMZ with 2 nm LMODN) [%] | inhibition of p65-induced luciferase expression [3] [%] | additive effect with TMZ (in words) (T98MG gliomas cell line [2]; 2.5 mM TMZ with mutant LMODN (FIG. 9)) | effect on cell survival (in words) (T98MG gliomas cell line [4])
MGMT-kB1-LMODN: double stranded 30-mer LNA modified decoy ODN of MGMT-κB1 site; forward SEQ ID NO. 40, reverse SEQ ID NO. 41 (sense TAATGGGGACTTTACGGGACTTTACAGAAT; antisense ATTCTGTAAAGTCCCGTAAAGTCCCCATTA; LNA modified, positions not given here; listed as Homo sapiens) [double stranded 30-mer LNA modified decoy ODN of MGMT-κB1 site; 41] | approximately 90% | inhibited the luciferase activity in a dose-dependent manner | two fold greater | not toxic to the cells | 22 | 57 |  | 
mMGMT-kB1-LMODN: mutant control LNA modified ODN; control forward SEQ ID NO. 42, control reverse SEQ ID NO. 43 (sense TAGTGTCGACTTCACTCTACTTGACAGAAT; antisense ATTCTGTCAAGTAGAGTGAAGTCGACACTA; LNA modified, positions not given here; listed as Homo sapiens) [mutant control LNA modified ODN; 43] |  | No inhibition |  |  |  |  | no any additive effect | no reduction in cell survival
